# According to patent US20260226062A1, “COMPOSITIONS USEFUL FOR MODULATING SPLICING” (Skyhawk Therapeutics, Inc., priority 2023, published 2026):
# Test system: ATXN3 pre-mRNA
# Experiment: ATXN3 Quantitative Splicing Assay (qPCR, E4E5 primers/probe detecting transcripts containing exon 4)
# Format: cell-based
# Conditions: Human neuroblastoma SK-N-MC cells, 24 h treatment, qPCR of transcripts containing exon 4; read-out: ATXN3 Potency - Splicing: ATXN3 E4E5 IC50
# Protocol: Human neuroblastoma SK-N-MC cells were plated in 384-well plates at 20,000 cells/well. Twenty-four hours after plating, cells were treated with compounds for 24 h at appropriate concentrations ranging from 30 μM to 0.6 nM (0.3% DMSO). Treated cells were lysed in 15 μL of lysis buffer, and cDNA was synthesized using the Fast Advanced Cells-to-Ct kit. Two μL of each cDNA was used in qPCR reactions to confirm the exon 4 skipped transcripts of ATXN3. A second set of primers/probe E4E5 was used to detect the transcripts containing exon 4. The third set of primers/probe E8E9 was used to detect total gene level of ATXN3. The qPCR reactions were prepared in 384-well plates in 10 μL volume, using TaqMan™ Fast Advanced Master Mix with primers and probes shown in the table below. Reactions were run in a Quant Studio 6 qPCR instrument with default settings.
# The primers and probes are listed below in Table 3.
row,SMILES,IC50 [nM]
1,"C[C@H](F)[C@H](N)Cc1cc2c(NCc3nccs3)nc(Cl)nn2c1Cl [Compound 5, 6-((2R,3S)-2-amino-3-fluorobutyl)-2,7-dichloro-N-(thiazol-2-ylmethyl)pyrrolo[2,1-f][1,2,4]triazin-4-amine]",101 to 500
2,"C[C@H](F)[C@H](N)Cc1cc2c(NCc3ncco3)nc(Cl)nn2c1Br [Compound 1, 6-((2R,3S)-2-amino-3-fluorobutyl)-7-bromo-2-chloro-N-(oxazol-2-ylmethyl)pyrrolo[2,1-f][1,2,4]triazin-4-amine]",101 to 500
3,"Cc1c(C[C@@H](N)[C@H](C)F)cc2c(NCc3nccs3)nc(Cl)nn12 [Compound 4, 6-((2R,3S)-2-amino-3-fluorobutyl)-2-chloro-7-methyl-N-(thiazol-2-ylmethyl)pyrrolo[2,1-f][1,2,4]triazin-4-amine]",101 to 500
4,"C[C@H](F)[C@H](N)Cc1cc2c(NCc3nccs3)nc(Cl)nn2c1Br [Compound 3, 6-((2R,3S)-2-amino-3-fluorobutyl)-7-bromo-2-chloro-N-(thiazol-2-ylmethyl)pyrrolo[2,1-f][1,2,4]triazin-4-amine]",101 to 500
5,"Cc1c(C[C@@H](N)[C@H](C)F)cc2c(NCc3ncco3)nc(Cl)nn12 [Compound 2, 6-((2R,3S)-2-amino-3-fluorobutyl)-2-chloro-7-methyl-N-(oxazol-2-ylmethyl)pyrrolo[2,1-f][1,2,4]triazin-4-amine]",501 to 5000

# Continued, values first:
row,IC50 [nM],SMILES
1,0.01 to 100,"C[C@H](F)[C@H](N)Cc1cc2c(NCc3ccsn3)nc(Cl)nn2c1Br [Compound 8, 6-((2R,3S)-2-amino-3-fluorobutyl)-7-bromo-2-chloro-N-(isothiazol-3-ylmethyl)pyrrolo[2,1-f][1,2,4]triazin-4-amine]"
2,501 to 5000,"Cc1c(C[C@@H](N)[C@H](C)F)cc2c(NCc3ccon3)nc(Cl)nn12 [Compound 9, 6-((2R,3S)-2-amino-3-fluorobutyl)-2-chloro-N-(isoxazol-3-ylmethyl)-7-methylpyrrolo[2,1-f][1,2,4]triazin-4-amine]"
3,101 to 500,"C[C@H](F)[C@H](N)Cc1cc2c(NCc3ncco3)nc(Cl)nn2c1Cl [Compound 6, 6-((2R,3S)-2-amino-3-fluorobutyl)-2,7-dichloro-N-(oxazol-2-ylmethyl)pyrrolo[2,1-f][1,2,4]triazin-4-amine]"
4,101 to 500,"C[C@H](F)[C@H](N)Cc1cc2c(NCc3ccon3)nc(Cl)nn2c1Br [Compound 7, 6-((2R,3S)-2-amino-3-fluorobutyl)-7-bromo-2-chloro-N-(isoxazol-3-ylmethyl)pyrrolo[2,1-f][1,2,4]triazin-4-amine]"
5,101 to 500,"Cc1c(C[C@@H](N)[C@H](C)F)cc2c(NCc3ccsn3)nc(Cl)nn12 [Compound 10, 6-((2R,3S)-2-amino-3-fluorobutyl)-2-chloro-N-(isothiazol-3-ylmethyl)-7-methylpyrrolo[2,1-f][1,2,4]triazin-4-amine]"
